Experimental data: US20050282159A1, “Rpob gene of streptomyces, primer specific to streptomyces, and identification method of streptomyces having rifampin resistance or sensitivity by using the same” (priority 2001, published 2005)

How the values were obtained:
Experiment in all cases: rifampin-sensitive test on Bennet solid media
Type in all cases: cell-based
Design in all cases: key: “(+)” indicates a genotype with rifampin-resistance; “(−)” indicates a genotype with rifampin-susceptibility
[1] = system: S. sclerotialus KCTC 9065; conditions: AAC genotype, 25 ug/ml rifampin, 72 hr
Description: (§1) The 47 strains were respectively cultured at 28° C. for 72 hr in Bennet liquid media. The culture solution was then inoculated on Bennet solid media (yeast extract 1 g/L, Beef extract 1 g/L, Tryptone 2 g/L, Glycerol 10 g/L, Agar 15 g/L) containing 25 ug/ml rifampin, and after incubation for 72 hr, rifampin-resistance was tested.

[2] = system: S. bambergiensis KCTC 9019; conditions: TCG (TCC) genotype, 25 ug/ml rifampin, 72 hr
Description: as §1

S. echinoruber KCTC 9725 = conditions: AAC genotype, 25 ug/ml rifampin, 72 hr
Description: as §1

S. coelicolor KCTC 9005 = conditions: AAC genotype, 25 ug/ml rifampin, 72 hr
Description: as §1

S. actuosus KCTC 9112 = conditions: TCG (TCC) genotype, 25 ug/ml rifampin, 72 hr
Description: as §1

[3] = system: S. celluloflavus KCTC 9702; conditions: TCG (TCC) genotype, 25 ug/ml rifampin, 72 hr
Description: as §1

S. armeniacus KCTC 9120 = conditions: AAC genotype, 25 ug/ml rifampin, 72 hr
Description: as §1

S. catenulae KCTC 9223 = conditions: TCG (TCC) genotype, 25 ug/ml rifampin, 72 hr
Description: as §1

S. abikoensis KCTC 9662 = conditions: TCG (TCC) genotype, 25 ug/ml rifampin, 72 hr
Description: as §1

S. flaveolus KCTC 9022 = conditions: AAC genotype, 25 ug/ml rifampin, 72 hr
Description: as §1

S. aculeolatus KCTC 9680 = conditions: AAC genotype, 25 ug/ml rifampin, 72 hr
Description: as §1

[4] = system: S. capillispiralis KCTC 1719; conditions: AAC genotype, 25 ug/ml rifampin, 72 hr
Description: as §1

[5] = system: S. antimycoticus KCTC 9694; conditions: TCG (TCC) genotype, 25 ug/ml rifampin, 72 hr
Description: as §1

S. plicatus KCTC 9040 = conditions: AAC genotype, 25 ug/ml rifampin, 72 hr
Description: as §1

S. albofaciens KCTC 9747 = conditions: TCG (TCC) genotype, 25 ug/ml rifampin, 72 hr
Description: as §1

S. spectabilis KCTC 9218 = conditions: AAC genotype, 25 ug/ml rifampin, 72 hr
Description: as §1

S. bikiniensis KCTC 9172 = conditions: TCG (TCC) genotype, 25 ug/ml rifampin, 72 hr
Description: as §1

S. galilaeus KCTC 1919 = conditions: AAC genotype, 25 ug/ml rifampin, 72 hr
Description: as §1

S. bacillaris KCTC 9018 = conditions: TCG (TCC) genotype, 25 ug/ml rifampin, 72 hr
Description: as §1

S. albulus KCTC 9668 = conditions: TCG (TCC) genotype, 25 ug/ml rifampin, 72 hr
Description: as §1

[6] = system: S. albogriseolus KCTC 9773; conditions: AAC genotype, 25 ug/ml rifampin, 72 hr
Description: as §1

S. flavofuscus KCTC 9737 = conditions: AAC genotype, 25 ug/ml rifampin, 72 hr
Description: as §1

[7] = system: S. phaeochromogenes KCTC 9763; conditions: AAC genotype, 25 ug/ml rifampin, 72 hr
Description: as §1

S. almquistii KCTC 9751 = conditions: TCG (TCC) genotype, 25 ug/ml rifampin, 72 hr
Description: as §1

[8] = system: S. chrysomallus KCTC 9705; conditions: TCG (TCC) genotype, 25 ug/ml rifampin, 72 hr
Description: as §1

S. avidinii KCTC 9757 = conditions: AAC genotype, 25 ug/ml rifampin, 72 hr
Description: as §1

S. carpinensis KCTC 9128 = conditions: TCG (TCC) genotype, 25 ug/ml rifampin, 72 hr
Description: as §1

CO[C@H]1/C=C/O[C@@]2(C)Oc3c(C)c(O)c4c(O)c(c(/C=N/N5CCN(C)CC5)c(O)c4c3C2=O)NC(=O)/C(C)=C\C=C\[C@H](C)[C@H](O)[C@@H](C)[C@@H](O)[C@@H](C)[C@H](OC(C)=O)[C@@H]1C [rifampin]
genotype (rifampin-resistance or susceptibility) [1]: + | genotype (rifampin-resistance or susceptibility) [2]: − | genotype (rifampin-resistance or susceptibility) (S. echinoruber KCTC 9725): + | genotype (rifampin-resistance or susceptibility) (S. coelicolor KCTC 9005): + | genotype (rifampin-resistance or susceptibility) (S. actuosus KCTC 9112): − | genotype (rifampin-resistance or susceptibility) [3]: − | genotype (rifampin-resistance or susceptibility) (S. armeniacus KCTC 9120): + | genotype (rifampin-resistance or susceptibility) (S. catenulae KCTC 9223): − | genotype (rifampin-resistance or susceptibility) (S. abikoensis KCTC 9662): − | genotype (rifampin-resistance or susceptibility) (S. flaveolus KCTC 9022): + | genotype (rifampin-resistance or susceptibility) (S. aculeolatus KCTC 9680): + | genotype (rifampin-resistance or susceptibility) [4]: + | genotype (rifampin-resistance or susceptibility) [5]: − | genotype (rifampin-resistance or susceptibility) (S. plicatus KCTC 9040): + | genotype (rifampin-resistance or susceptibility) (S. albofaciens KCTC 9747): − | genotype (rifampin-resistance or susceptibility) (S. spectabilis KCTC 9218): + | genotype (rifampin-resistance or susceptibility) (S. bikiniensis KCTC 9172): − | genotype (rifampin-resistance or susceptibility) (S. galilaeus KCTC 1919): + | genotype (rifampin-resistance or susceptibility) (S. bacillaris KCTC 9018): − | genotype (rifampin-resistance or susceptibility) (S. albulus KCTC 9668): − | genotype (rifampin-resistance or susceptibility) [6]: + | genotype (rifampin-resistance or susceptibility) (S. flavofuscus KCTC 9737): + | genotype (rifampin-resistance or susceptibility) [7]: + | genotype (rifampin-resistance or susceptibility) (S. almquistii KCTC 9751): − | genotype (rifampin-resistance or susceptibility) [8]: − | genotype (rifampin-resistance or susceptibility) (S. avidinii KCTC 9757): + | genotype (rifampin-resistance or susceptibility) (S. carpinensis KCTC 9128): −
